Reference: patent publication US10517862B2, “Fused heterocyclic compound derivative and application thereof” (NHWA PHARMA. CORPORATION, priority 2015, dated 2019)

How the values were obtained:
[1] = test system: α1 norepinephrine receptor; assay: α1 norepinephrine receptor binding assay (3H-prazosin, rat cortex membrane); details: for affinity with α1 (in words): summary of in vitro assay; for α1 Inhibition rate (%): test compound final concentration 10^−5 M, 3H-prazosin, rat cortex membrane
Text: Preparation of Receptor Membrane of Norepinephrine
α1 Norepinephrine Receptor Binding Assay

[2] = test system: D2 receptor; assay: D2 receptor binding assay (3H-Spiperone, rat striatum membrane); details: for affinity with D2 (in words): summary of in vitro assay; for D2 Inhibition rate (%): test compound final concentration 10^−5 M, 3H-Spiperone, rat striatum membrane
Protocol: Preparation of D2 Membrane
Rats were decapitated on ice. […] The weight of the homogenized tubes were adjusted using a balance, and centrifugation was conducted. […] Centrifugation was conducted.
Materials for the Receptor Binding Assay

[3] = test system: mice of Kunming breed; assay: MK-801 induced high activity in mice; assay type: in vivo; details: Mus musculus, 1.5 h, po, MK-801 0.1 mg/kg ip, spontaneous activities in 90 min
Protocol: Example 54: MK-801 Induced High Activity—the In Vivo Anti-Schizophrenia Activity of the Compounds
Healthy mice of Kunming breed (with half male and half female, (20±2) g) were provided by Qinglongshan Animal Cultivation Center, Nanjing.
Ascorbic acid was provided by Sinopharm Chemical Reagent Co. Ltd.
MK-801 was produced by Sigma Company, USA; the formulation method: 0.1% vitamin C was used to formulate a 1 mg/ml solution.
Test positive drugs: haloperidol, clozapine, risperidone, olanzapine, aripiprazole, ziprasidone, quetiapine.
Tween 80, with the concentration of 10%.
Mice with qualified body weight were selected, and randomly divided into blank group, model group, positive control group (risperidone group) and drug group. […] 1 h after the administration, 0.1% concentration of ascorbic acid was intraperitoneally injected to the blank group at 0.1 ml/10 g; and the model group, the positive control group (30 min) and the drug group were intraperitoneally injected the MK-801 solution at 0.1 mg/kg. Subsequently, the spontaneous activities of the mice of each group in 90 min were measured.

Row | Compound | affinity with α1 (in words) [1] | α1 Inhibition rate (%) [1] | affinity with D2 (in words) [2] | D2 Inhibition rate (%) [2] | ED50 [3]
1 | O=C(CCCN1CCC(c2noc3cc(F)ccc23)CC1)c1cc2c3c(c1)CCC(=O)N3CCC2 [Compound 5] | low affinities | 43.75% | high affinities | 99.40% | 2.2 mg/kg
2 | O=C(CCN1CCC(c2noc3cc(F)ccc23)CC1)c1cc2c3c(c1)CCN3C(=O)CC2 [Compound 12] | low affinities | 58.91% | high affinities | 97.75% | 0.06 mg/kg
